Experimental data published in US20250138013A1, “SMALL MOLECULE INHIBITOR TARGETING A LEUKEMIC STEM CELL ASSOCIATED GENE FOR HIGH-RISK AML PATIENTS” (The Chinese University of Hong Kong, priority 2023, published 2025).
“Also recorded” adds a separate entry of the source.

Tests used:
KG1a cells = assay: Cell Titer-GLO cell viability assay, KG1a; format: cell-based
Method: (§1) The SMI is initially tested with increasing doses for its effect upon cell viability in KG1a cells. […] This dose is then tested on GDM1, MOLM13 and OCIAML3 cells.
(§2) Cells are treated with the SMIs and control (DMSO) for 72 hours and their viability is detected using the Cell Titer Glo® assay according to the manufacturer's instructions. Statistical analysis is performed using one-way ANOVA with Tukey's multiple comparisons test with Mean+SD of at least 2 independent experiments.
(§3) Cells are seeded into 96-well plates at a density of approximately 2×10^5 cells/ml and drugs are added at indicated concentrations. Cell viability is measured at indicated time points using Cell Titer-GLO® Luminescent Cell Viability Assay. For assessment of gene expression after drug treatment, cells are seeded in 6-well plates at approximately 4×10^5 cells/ml and drugs are added at indicated doses. RNA and/or protein is extracted 72 hours later. qPCR and Western Blot are then performed according to standard procedures to detect target gene and protein expression.

[1] = tested on: STEAP3 mRNA expression in KG1a cells; assay: qPCR of SPINK2 target gene STEAP3 after SMI treatment, KG1a; format: cell-based
Method: as §1, §3

[2] = tested on: SPINK2^high cells (KG1a and GDM1) vs. SPINK2^low cells (OCIAML3 and MOLM13); assay: Cytotoxicity compared between SPINK2high and SPINK2low cell lines (Cell Titer Glo); format: cell-based; details: 72 h treatment, compared with SMI-2
Method: as §2, §3

[3] = tested on: SPINK2 protein expression in KG1a cells; assay: Western blot of SPINK2 protein after SMI treatment, KG1a; format: cell-based
Method: as §1
(§4) Cells are harvested, washed in Phosphate-buffered saline (PBS) and lysed using Pierce™ IP Lysis Buffer. Protein concentration is measured using Pierce™ BCA Protein Assay Kit. Approximately 30 μg of whole cell lysates are mixed with 4× Laemmli Buffer and β-mercaptoethanol and denatured for 5 minutes at 95° C. Lysates are equally loaded onto and separated using freshly prepared polyacrylamide gels. Proteins are transferred onto 0.2 μm Immun-Blot® PVDF membranes using FLASHBlot transfer buffer. The membranes are then blocked for one hour at room temperature with 5% non-fat dry milk in TBS Tween™ 20 Buffer. This is followed by incubation with primary antibodies diluted in 5% bovine serum albumin (BSA) at 4° C. overnight. Primary antibody dilutions are as follows: SPINK2 (1:1000), ALCAM (1:10000), β-ACTIN (1:10000), GAPDH (1:2500). […]
(§5) Cells are seeded into 96-well plates at a density of approximately 2×10^5 cells/ml and drugs are added at indicated concentrations. Cell viability is measured at indicated time points using Cell Titer-GLO® Luminescent Cell Viability Assay. […]

[4] = tested on: SLC7A11 mRNA expression in KG1a cells; assay: qPCR of SPINK2 target gene SLC7A11 after SMI treatment, KG1a; format: cell-based
Method: as §1, §3

GDM1 cells = assay: Cell Titer-GLO cell viability assay, GDM1; format: cell-based; details: GDM1 (SPINK2high), 150 μM for 72 hours
Method: as §1, §2, §3

[5] = tested on: SPINK2 protein expression in GDM1 cells; assay: Western blot of SPINK2 protein after SMI treatment, GDM1; format: cell-based
Method: as §1, §4, §5

[6] = Solubility in DMSO and other solvents; format: physicochemical
Excerpt: In another embodiment, the SMI is screened via a structure-based virtual screening (SBVS) and selected from a group of bioactive molecules due to its efficient binding affinity based on its idock scores and its capacity to dissolve in at least one solvent selected from a group comprising of dimethyl sulfoxide (DMSO), water, ethanol or dimethylformamide (DMF).
To identify potential SPINK2-SMIs, Structure-based Virtual Screening (SBVS) is initially employed for in silico screening of a small-molecule library comprising 1.5 million compounds to identify bioactive molecules that bind to the targeting domain of SPINK2 (FIG. 16A).

[7] = tested on: SLC7A11 mRNA expression in MOLM13-EV and MOLM13-SPINK2 cells; assay: qPCR of SLC7A11 after Nutlin-3a in MOLM13-EV and MOLM13-SPINK2 cells; format: cell-based; details: Nutlin-3a 1 μM, 48 hours and 72 hours
Method: Previously, p53 transcriptionally represses SLC7A11 expression, thereby playing an important pro-ferroptotic role. The data has shown that p53 pathway genes are inversely affected upon SPINK2 modulation (Tables S11 & S12). Based on the hypothesis that SPINK2 overexpression in MOLM13 cells might counteract the p53-mediated repression of SLC7A11, MOLM13-EV and MOLM13-SPINK2 cells are treated with the p53 activator, Nutlin-3a (1 μM), for 48 hours and 72 hours. […] Of note, the effects of Nutlin-3a could not be tested in KG1a cells, since they have a TP53 mutation which renders them insensitive to Nutlin-3a activity.
GFP-labelled lentiviruses are used for assessing the biological significance of SPINK2 in AML by overexpressing SPINK2 in OCIAML3 and MOLM13 cells (pRSC—SFFV-SPINK2-E2A-Puro-E2A-GFP-Wpre) and empty vector, EV (pRSC—SFFV-Puro-E2A-GFP-wpre) are provided. Transduction is performed in approximately 2×10^5 cells/ml at a multiplicity of infection (MOI) of 20 using Retronectin®-coated 6-well plates according to the manufacturer's instructions (Takara Bio Inc.) This is followed by puromycin selection (1 μg/ml) for at least seven days. Functional studies are then performed on cells as described and extra cells are cryopreserved.

SMILES	cytotoxicity at 150 µM (KG1a cells; Homo sapiens, KG-1a, KG1a cells, 150 μM, 72nd hour, read-out: reduction of cell viability) [%]	effect on cell viability (KG1a cells; KG1a (SPINK2high), 150 μM for 72 hours)	STEAP3 mRNA expression [1]	toxicity/specificity against SPINK2high vs SPINK2low cells [2]	toxicity/specificity against SPINK2high vs SPINK2low cells ([2]; listed as SMI-5)	SPINK2 protein expression [3]	SLC7A11 mRNA expression [4]	effect on cell viability (GDM1 cells)	SPINK2 protein expression [5]	solubility in DMSO [6]	SLC7A11 mRNA expression [7]
C[C@]12C(=O)N(c3cccc(C(=O)O)c3)C(=O)[C@H]1C1c3ccccc3C2c2ccccc21 [SMI, 3-[(15R,19S)-15-methyl-16,18-dioxo-17-azapentacyclo [6.6.5.02,7.09, 14.015,19]nonadeca-2,4,6,9,11,13-hexaen-17-yl]benzoic acid]	~50	significantly decreased cell viability	upregulation	selectively decreased viability	greater toxicity; also recorded: greater specificity	decreased	downregulation	significantly decreased cell viability	decreased	soluble in DMSO	–
COc1ccc(C2=N[C@@H](c3ccc(Cl)cc3)[C@@H](c3ccc(Cl)cc3)N2C(=O)N2CCNC(=O)C2)c(OC(C)C)c1 [Nutlin-3a]	–	–	–	–	–	–	–	–	–	–	reduced in MOLM13-EV cells to a significantly greater extent than in MOLM13-SPINK2 cells
